Assays:
[1] = biological target: Disintegrin and metalloproteinase domain-containing protein 17 (Homo sapiens, UniProt P78536); test: Inhibition of heparin-binding epidermal growth factor (HB-EGF) shedding; type: functional
[2] = organism: Homo sapiens; test: Stability in human plasma and percentage of compound remained after 60 minutes was reported; type: functional, cell-free
[3] = biological target: Stromelysin-1 (Homo sapiens, UniProt P08254); test: Inhibition of Matrix metalloprotease-3 (MMP-3)
[4] = biological target: Matrix metalloproteinase-9 (Homo sapiens, UniProt P14780); test: Inhibition of Matrix metalloprotease-9 (MMP-9)
[5] = biological target: T1, Interstitial collagenase (Homo sapiens, UniProt P03956); test: Inhibition of Matrix metalloprotease-1 (MMP-1)
T1 sequence (P03956 whole entry): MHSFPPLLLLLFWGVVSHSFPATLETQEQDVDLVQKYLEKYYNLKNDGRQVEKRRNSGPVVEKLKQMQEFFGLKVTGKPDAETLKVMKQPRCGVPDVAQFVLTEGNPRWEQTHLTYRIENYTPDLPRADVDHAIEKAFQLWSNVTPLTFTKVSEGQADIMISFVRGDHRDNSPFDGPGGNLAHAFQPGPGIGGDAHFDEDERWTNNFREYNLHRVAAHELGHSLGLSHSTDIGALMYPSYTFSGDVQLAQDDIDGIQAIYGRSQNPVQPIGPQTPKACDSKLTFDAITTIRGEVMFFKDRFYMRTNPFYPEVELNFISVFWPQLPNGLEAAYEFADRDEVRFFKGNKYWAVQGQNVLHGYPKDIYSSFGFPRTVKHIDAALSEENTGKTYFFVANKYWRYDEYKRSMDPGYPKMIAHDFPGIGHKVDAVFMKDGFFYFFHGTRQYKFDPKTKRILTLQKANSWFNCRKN

[6] = biological target: T2, Amphiregulin (Homo sapiens, UniProt P15514); test: In vitro amphiregulin shedding inhibition; type: functional
T2 sequence (P15514 whole entry): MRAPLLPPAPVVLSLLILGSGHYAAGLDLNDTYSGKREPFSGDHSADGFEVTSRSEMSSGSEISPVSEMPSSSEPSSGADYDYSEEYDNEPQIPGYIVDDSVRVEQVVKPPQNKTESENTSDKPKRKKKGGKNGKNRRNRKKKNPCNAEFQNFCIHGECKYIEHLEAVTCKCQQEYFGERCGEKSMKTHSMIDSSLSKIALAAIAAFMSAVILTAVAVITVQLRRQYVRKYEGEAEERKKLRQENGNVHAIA

[7] = organism: Mus musculus; test: Activity against TPA-induced epidermal hyperplasia in mice, and epidermal thickness value was reported; type: functional; parameters: unit not given here
[8] = organism: Mus musculus; test: Activity against TPA-induced epidermal hyperplasia in mice, and percent decrease in TPA-induced hyperplasia was reported; type: functional

Sequence of Stromelysin-1 (P08254 whole entry): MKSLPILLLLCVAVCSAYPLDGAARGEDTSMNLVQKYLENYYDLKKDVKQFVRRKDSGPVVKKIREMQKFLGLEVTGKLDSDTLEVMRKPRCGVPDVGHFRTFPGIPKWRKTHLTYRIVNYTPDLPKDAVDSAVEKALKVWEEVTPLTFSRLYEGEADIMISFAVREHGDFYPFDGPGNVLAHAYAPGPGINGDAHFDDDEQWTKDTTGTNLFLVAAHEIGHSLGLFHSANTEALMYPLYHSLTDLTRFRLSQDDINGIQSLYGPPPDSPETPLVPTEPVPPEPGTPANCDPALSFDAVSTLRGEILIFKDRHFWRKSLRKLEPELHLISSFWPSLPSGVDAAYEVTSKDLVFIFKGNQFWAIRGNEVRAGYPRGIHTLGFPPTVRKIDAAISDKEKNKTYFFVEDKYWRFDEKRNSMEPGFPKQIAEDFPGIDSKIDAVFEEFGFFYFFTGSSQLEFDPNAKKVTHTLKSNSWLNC
Sequence of Matrix metalloproteinase-9 (P14780 whole entry): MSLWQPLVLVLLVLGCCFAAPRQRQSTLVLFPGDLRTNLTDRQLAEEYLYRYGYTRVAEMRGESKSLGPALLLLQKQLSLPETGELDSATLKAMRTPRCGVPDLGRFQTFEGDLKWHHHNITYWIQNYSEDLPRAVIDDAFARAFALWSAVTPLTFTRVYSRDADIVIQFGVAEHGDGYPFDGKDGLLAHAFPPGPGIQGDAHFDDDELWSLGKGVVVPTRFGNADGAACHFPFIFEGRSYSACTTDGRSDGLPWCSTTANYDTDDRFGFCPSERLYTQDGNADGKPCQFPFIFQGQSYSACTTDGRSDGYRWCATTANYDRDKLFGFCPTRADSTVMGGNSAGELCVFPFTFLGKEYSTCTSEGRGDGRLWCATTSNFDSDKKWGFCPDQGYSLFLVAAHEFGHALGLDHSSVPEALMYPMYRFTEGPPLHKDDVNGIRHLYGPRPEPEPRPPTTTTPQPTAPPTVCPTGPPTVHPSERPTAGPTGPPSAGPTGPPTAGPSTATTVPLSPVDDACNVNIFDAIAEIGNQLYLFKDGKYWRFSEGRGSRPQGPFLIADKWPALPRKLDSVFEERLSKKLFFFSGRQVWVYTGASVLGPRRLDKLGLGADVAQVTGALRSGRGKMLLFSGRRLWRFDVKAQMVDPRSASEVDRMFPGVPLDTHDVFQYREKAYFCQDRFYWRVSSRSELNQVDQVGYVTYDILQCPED
Sequence of Disintegrin and metalloproteinase domain-containing protein 17 (P78536 whole entry, the tested form may be a part): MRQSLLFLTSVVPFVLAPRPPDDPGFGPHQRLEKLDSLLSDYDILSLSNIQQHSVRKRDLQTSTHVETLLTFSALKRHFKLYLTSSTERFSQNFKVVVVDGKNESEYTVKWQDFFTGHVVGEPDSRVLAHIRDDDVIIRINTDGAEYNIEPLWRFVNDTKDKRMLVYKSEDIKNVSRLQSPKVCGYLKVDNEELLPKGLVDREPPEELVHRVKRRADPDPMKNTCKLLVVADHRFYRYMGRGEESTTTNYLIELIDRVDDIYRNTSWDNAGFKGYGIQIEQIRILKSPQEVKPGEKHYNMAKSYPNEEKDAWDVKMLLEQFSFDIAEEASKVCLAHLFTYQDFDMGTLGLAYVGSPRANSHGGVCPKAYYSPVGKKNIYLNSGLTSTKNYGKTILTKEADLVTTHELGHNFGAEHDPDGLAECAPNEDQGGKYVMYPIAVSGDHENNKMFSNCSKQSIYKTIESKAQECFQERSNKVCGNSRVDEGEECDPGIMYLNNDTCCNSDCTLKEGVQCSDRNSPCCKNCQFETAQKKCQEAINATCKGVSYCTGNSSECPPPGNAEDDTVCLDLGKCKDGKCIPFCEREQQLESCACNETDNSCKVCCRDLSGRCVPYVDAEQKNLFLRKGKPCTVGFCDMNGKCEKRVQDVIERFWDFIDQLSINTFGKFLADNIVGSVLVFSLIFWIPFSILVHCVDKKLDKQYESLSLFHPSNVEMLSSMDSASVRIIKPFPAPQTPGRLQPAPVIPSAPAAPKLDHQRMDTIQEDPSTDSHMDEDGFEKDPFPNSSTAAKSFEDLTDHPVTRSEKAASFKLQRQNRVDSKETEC

Row | SMILES | IC50 [1] [nM] | Stability [2] [%] | Ki [3] [nM] | Ki [4] [nM] | Ki [5] [nM] | IC50 [6] [nM] | Epidermal thickness [7] | Decrease [8] [%]
1 | COc1ccc([P@](=O)(OCCF)N2Cc3ccccc3C[C@@H]2C(=O)NO)cc1 | 180 | 96 | 9.07 | 10.5 | 10.5 | 470 | – | –
2 | O=C(NO)C1Cc2ccccc2CN1 (stereo unspecified) | > 10000 | – | > 650 | > 800 | – | – | – | –
3 | COc1ccc([P@](=O)(OCC(F)(F)F)N2Cc3ccccc3C[C@@H]2C(=O)NO)cc1 | 730 | – | 6.75 | 3.68 | 6.57 | 950 | – | –
4 | CCCCCCCCCCCCCC(=O)O[C@@H]1[C@@H](C)[C@]2(O)C3C=C(C)C(=O)[C@@]3(O)CC(CO)=C[C@H]2[C@@H]2C(C)(C)[C@]12OC(C)=O.CCO[P@@](=O)(c1ccc(OC)cc1)N1Cc2ccccc2C[C@@H]1C(=O)NO (stereo partly specified) | – | – | – | – | – | – | <44.4 | 45.6
5 | COc1ccc([P@](=O)(OCC(F)F)N2Cc3ccccc3C[C@@H]2C(=O)NO)cc1 | 510 | – | 6.67 | 4.97 | 6 | 1470 | – | –
6 | COc1ccc(P(=O)(OC)N2Cc3ccccc3CC2C(=O)NO)cc1 (stereo unspecified) | < 1000 | – | – | – | – | – | – | –
7 | CCO[P@@](=O)(c1ccc(OC)cc1)N1Cc2ccccc2C[C@@H]1C(=O)NO | 230 | 100 | 5.2 | 5.05 | 4.59 | 350 | – | –
8 | CCO[P@](=O)(c1ccc(OC)cc1)N1Cc2ccccc2C[C@@H]1C(=O)NO | > 10000 | – | – | > 800 | – | – | – | –
9 | CCCCCCCCCCCCCC(=O)O[C@@H]1[C@@H](C)[C@]2(O)C3C=C(C)C(=O)[C@@]3(O)CC(CO)=C[C@H]2[C@@H]2C(C)(C)[C@]12OC(C)=O.COc1ccc([P@](=O)(OCC(F)(F)F)N2Cc3ccccc3C[C@@H]2C(=O)NO)cc1 (stereo partly specified) | – | – | – | – | – | – | <30.5 | 81.3
10 | CCCCCCCCCCCCCC(=O)O[C@@H]1[C@@H](C)[C@]2(O)C3C=C(C)C(=O)[C@@]3(O)CC(CO)=C[C@H]2[C@@H]2C(C)(C)[C@]12OC(C)=O.COc1ccc([P@](=O)(OCC(F)F)N2Cc3ccccc3C[C@@H]2C(=O)NO)cc1 (stereo partly specified) | – | – | – | – | – | – | <39.7 | 57.7
11 | CCCCCCCCCCCCCC(=O)O[C@@H]1[C@@H](C)[C@@]2(O)[C@@H](C=C(CO)C[C@]3(O)C(=O)C(C)=C[C@@H]23)[C@@H]2C(C)(C)[C@]12OC(C)=O [PHORBOL MYRISTATE ACETATE] | – | – | – | – | – | – | 62.2 | –
12 | COc1ccc([P@](=O)(OCCC(F)(F)F)N2Cc3ccccc3C[C@@H]2C(=O)NO)cc1 | 310 | 99 | 3.33 | 4.46 | 2.21 | 970 | – | –
